Measurements reported in patent publication US8404679B2, “Pyrrolidine derivatives as NK2 receptor antagonists” (Hoffmann-La Roche Inc., priority 2008, dated 2013).

Molecular target: T1, human NK2 receptor (Homo sapiens, UniProt P21452)
T1 construct: purchased Perkin Elmer biosignal Inc. 6110510
T1 sequence (P21452 1-398): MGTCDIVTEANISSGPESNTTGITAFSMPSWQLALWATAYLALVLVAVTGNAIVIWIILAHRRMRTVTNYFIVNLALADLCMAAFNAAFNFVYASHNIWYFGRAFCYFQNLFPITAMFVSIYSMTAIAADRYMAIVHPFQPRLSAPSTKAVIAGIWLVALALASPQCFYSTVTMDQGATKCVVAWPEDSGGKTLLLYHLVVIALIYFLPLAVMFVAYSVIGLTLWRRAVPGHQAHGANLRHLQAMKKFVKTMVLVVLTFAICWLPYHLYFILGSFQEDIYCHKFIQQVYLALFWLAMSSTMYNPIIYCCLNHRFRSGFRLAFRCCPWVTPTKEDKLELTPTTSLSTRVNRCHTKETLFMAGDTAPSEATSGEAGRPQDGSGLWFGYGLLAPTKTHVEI
Assay: [3H]SR48968 competition binding assay
Conditions: [3H]SR48968 displacement, membranes of CHO cells stably expressing recombinant human NK2 receptor; Ki from IC50 by Cheng-Prussoff
Summary of the method: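 Membranes from CHO cells stably expressing recombinant human NK2 were incubated 75 min at RT with [3H]SR48968 at its KD and 10 compound concentrations (0.0003–10 μM) in Tris-HCl pH 7.4, MnCl2, chymostatin, BSA. Filter-bound radioactivity was counted; Hill-fitted IC50 converted to Ki via Cheng-Prusoff.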

Row | Structure (SMILES) | Ki [nM]
1 | COc1ccc(C(=O)N(C)[C@@H]2CN(C(=O)N3CCN(S(C)(=O)=O)[C@@H](C)C3)C[C@H]2c2ccc(Cl)c(Cl)c2)cc1C(F)(F)F [Example 42] | 1.4
2 | COc1ccc(C(=O)N(C)[C@@H]2CN(C(=O)N3CCN(S(C)(=O)=O)[C@H](C)C3)C[C@H]2c2ccc(Cl)c(Cl)c2)cc1C(F)(F)F [Example 43] | 2.23
3 | COc1ccc(C(=O)N(C)[C@@H]2CN(C(=O)C3CCN(C(=O)C4(C)CC4)CC3)C[C@H]2c2ccc(Cl)cc2)cc1C(F)(F)F [Example 94, N-{(3S,4R)-4-(4-Chloro-phenyl)-1-[1-(1-methyl-cyclopropanecarbonyl)-piperidine-4-carbonyl]-pyrrolidin-3-yl}-4-methoxy-N-methyl-3-trifluoromethyl-benzamide] | 0.6
4 | COc1ccc(C(=O)N(C)[C@@H]2CN(C(=O)C3CCN(C(=O)C4(C)CC4)CC3)C[C@H]2c2ccc(Cl)c(Cl)c2)cc1C(F)(F)F [Example 107, N-{(3S,4R)-4-(3,4-Dichloro-phenyl)-1-[1-(1-methyl-cyclopropanecarbonyl)-piperidine-4-carbonyl]-pyrrolidin-3-yl}-4-methoxy-N-methyl-3-trifluoromethyl-benzamide] | 0.6
5 | CN(C(=O)Cc1ccc(F)cc1)[C@H]1CN(C(=O)C2CCN(C(=O)C3(C)CC3)CC2)C[C@@H]1c1ccc(Cl)c(Cl)c1 [Example 118, N-{(3R,4S)-4-(3,4-Dichloro-phenyl)-1-[1-(1-methyl-cyclopropanecarbonyl)-piperidine-4-carbonyl]-pyrrolidin-3-yl}-2-(4-fluoro-phenyl)-N-methyl-acetamide] | 32.4
6 | CN(C(=O)Cc1ccc(F)cc1)[C@@H]1CN(C(=O)C2CCN(C(=O)C3(C)CC3)CC2)C[C@H]1c1ccc(Cl)c(Cl)c1 [Example 119, N-{(3S,4R)-4-(3,4-Dichloro-phenyl)-1-[1-(1-methyl-cyclopropanecarbonyl)-piperidine-4-carbonyl]-pyrrolidin-3-yl}-2-(4-fluoro-phenyl)-N-methyl-acetamide] | 11.3
7 | COc1ccc(C(=O)N(C)[C@H]2CN(C(=O)C3CCN(C(=O)C4(C)CC4)CC3)C[C@@H]2c2ccc(Cl)cc2C)cc1C(F)(F)F [Example 123, N-{(3R,4S)-4-(4-Chloro-2-methyl-phenyl)-1-[1-(1-methyl-cyclopropanecarbonyl)-piperidine-4-carbonyl]-pyrrolidin-3-yl}-4-methoxy-N-methyl-3-trifluoromethyl-benzamide] | 38
8 | CN(C(=O)c1ccc(Cl)c(C(F)(F)F)c1)[C@H]1CN(C(=O)C2CCN(CC3CC3)CC2)C[C@@H]1c1ccc(Cl)cc1 [Example 153, 4-Chloro-N-[(3R,4S)-4-(4-chloro-phenyl)-1-(1-cyclopropylmethyl-piperidine-4-carbonyl)-pyrrolidin-3-yl]-N-methyl-3-trifluoromethyl-benzamide] | 52.7
9 | CN(C(=O)c1ccc(Cl)c(C(F)(F)F)c1)[C@@H]1CN(C(=O)C2CCN(CC3CC3)CC2)C[C@H]1c1ccc(Cl)cc1 [Example 154, 4-Chloro-N-[(3S,4R)-4-(4-chloro-phenyl)-1-(1-cyclopropylmethyl-piperidine-4-carbonyl)-pyrrolidin-3-yl]-N-methyl-3-trifluoromethyl-benzamide] | 0.5
10 | CN(C(=O)c1ccc(Cl)c(C(F)(F)F)c1)[C@@H]1CN(C(=O)C2CCN(C(=O)C3(C)CC3)CC2)C[C@H]1c1ccc(Cl)cc1 [Example 156, 4-Chloro-N-{(3S,4R)-4-(4-chloro-phenyl)-1-[1-(1-methyl-cyclopropanecarbonyl)-piperidine-4-carbonyl]-pyrrolidin-3-yl}-N-methyl-3-trifluoromethyl-benzamide] | 0.8
11 | CN(C(=O)c1ccc(Cl)c(C(F)(F)F)c1)[C@@H]1CN(C(=O)C2CCN(CC3CC3)CC2)C[C@H]1c1ccc(Cl)c(Cl)c1 [Example 167, 4-Chloro-N-[(3S,4R)-1-(1-cyclopropylmethyl-piperidine-4-carbonyl)-4-(3,4-dichloro-phenyl)-pyrrolidin-3-yl]-N-methyl-3-trifluoromethyl-benzamide] | 93.6
